Reference: PMC9372074, “Biocatalytic routes to stereo-divergent iridoids” (Nature Communications, 2022)
Where two headings read alike, the source gives them in different places.

Tests used:
NmNEPS1 = target: T1, NmNEPS1 (Nepeta racemosa, UniProt A0A3Q8GL18); details: NADPH, 5 mM NAD+, pH 8, 30 °C
T1 construct: gene NEPS1

NcNEPS3A [1] = target: T2, NcNEPS3A (Nepeta cataria, UniProt A0A7D3QLP1, V206Q); assay: end-point GC-MS coupled assay; assay type: biochemical; details: with 7S-ISY and 8-oxogeranial; NADPH, 5 mM NAD+; pH 8, 30 °C
T2 construct: pOPINF, His-tagged; E. coli SoluBL21; Ni-NTA purified
T2 sequence (A0A7D3QLP1 entry or part of it V206Q): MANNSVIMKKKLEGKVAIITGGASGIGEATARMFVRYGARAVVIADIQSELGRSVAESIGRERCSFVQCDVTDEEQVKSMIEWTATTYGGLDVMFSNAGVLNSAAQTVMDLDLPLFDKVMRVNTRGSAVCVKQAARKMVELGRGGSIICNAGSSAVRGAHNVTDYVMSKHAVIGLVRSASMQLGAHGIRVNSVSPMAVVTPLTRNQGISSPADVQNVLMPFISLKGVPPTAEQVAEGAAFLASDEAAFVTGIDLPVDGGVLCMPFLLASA

NcNEPS3A [2] = target: T3, NcNEPS3A (Nepeta cataria, UniProt A0A7D3QLP1); assay: end-point GC-MS coupled assay; assay type: biochemical; details: nepetalactol formed in situ by the enzyme from ISY product; NADPH, 5 mM NAD+; pH 8, 30 °C
T3 construct: pOPINF, His-tagged; E. coli SoluBL21; Ni-NTA purified
T3 sequence (A0A7D3QLP1 entry or part of it): as the sequence (A0A7D3QLP1 entry or part of it V206Q) above, with Q206V counted along it

NmNEPS3 [3] = target: T4, NmNEPS3 (Nepeta racemosa, UniProt A0A3Q8GLE8, Q206V); details: nepetalactol formed in situ by the enzyme from ISY product; NADPH, 5 mM NAD+; pH 8, 30 °C
T4 construct: gene NEPS3
T4 sequence (A0A3Q8GLE8 whole entry Q206V): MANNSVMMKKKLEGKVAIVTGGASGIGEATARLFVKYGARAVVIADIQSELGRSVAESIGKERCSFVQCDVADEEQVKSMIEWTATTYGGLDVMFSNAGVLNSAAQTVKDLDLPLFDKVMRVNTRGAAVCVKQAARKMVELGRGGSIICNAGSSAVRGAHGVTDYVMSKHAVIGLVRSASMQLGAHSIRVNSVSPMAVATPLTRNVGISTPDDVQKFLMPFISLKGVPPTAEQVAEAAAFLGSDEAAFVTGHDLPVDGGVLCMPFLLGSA

NmNEPS3 [4] = target: T5, NmNEPS3 (Nepeta racemosa, UniProt A0A3Q8GLE8); details: with 7S-ISY and 8-oxogeranial; pH 8, 30 °C; cyclization of 8-oxocitronellyl enol
T5 construct: gene NEPS3
T5 sequence (A0A3Q8GLE8 whole entry): as the sequence (A0A3Q8GLE8 whole entry Q206V) above, with V206Q counted along it

NmNEPS4 = target: T6, NmNEPS4 (Nepeta racemosa, UniProt A0A7D3UJX6); assay: end-point GC-MS coupled assay; assay type: biochemical; details: nepetalactol formed in situ with 7S-ISY; NADPH, 5 mM NAD+; pH 8, 30 °C
T6 construct: pOPINF, His-tagged; E. coli SoluBL21; Ni-NTA purified
T6 sequence (A0A7D3UJX6 1-274): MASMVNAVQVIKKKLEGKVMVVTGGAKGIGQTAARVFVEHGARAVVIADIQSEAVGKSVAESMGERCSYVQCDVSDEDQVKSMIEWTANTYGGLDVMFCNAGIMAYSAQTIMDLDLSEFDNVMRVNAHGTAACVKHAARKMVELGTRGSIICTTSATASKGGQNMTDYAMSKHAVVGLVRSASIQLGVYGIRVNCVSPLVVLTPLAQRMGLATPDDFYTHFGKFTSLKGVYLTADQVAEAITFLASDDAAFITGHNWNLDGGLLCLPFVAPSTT

T1 sequence (A0A3Q8GL18 whole entry): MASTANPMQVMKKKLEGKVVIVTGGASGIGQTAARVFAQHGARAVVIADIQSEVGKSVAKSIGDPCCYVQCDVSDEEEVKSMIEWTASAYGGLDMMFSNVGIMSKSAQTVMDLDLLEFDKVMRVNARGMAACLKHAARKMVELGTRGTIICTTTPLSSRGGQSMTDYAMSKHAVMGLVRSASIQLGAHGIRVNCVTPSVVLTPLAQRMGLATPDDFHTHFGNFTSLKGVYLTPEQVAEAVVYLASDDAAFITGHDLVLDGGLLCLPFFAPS

## CC1=COC(O)[C@@H]2[C@@H]1CC[C@@H]2C (stereo partly drawn) [3c, 7S-trans-cis nepetalactol]
NmNEPS1; nepetalactol formed in situ with 7S-ISY and cyclase
  end-point GC-MS coupled assay: NmNEPS1 is able to oxidize both 3c and 7S-cis-trans nepetalactol 3a

## CC1=COC(O)[C@H]2[C@@H](C)CC[C@@H]12 (stereo partly drawn) [3b, 7S-cis-cis nepetalactol]
NcNEPS3A [1]
  end-point GC-MS coupled assay: NcNEPS3A-V206Q produces only 3b
NcNEPS3A [2]
  end-point GC-MS coupled assay: only NcNEPS3A can oxidize 7S-cis-cis nepetalactol 3b
NmNEPS3 [3]
  end-point GC-MS coupled assay: NmNEPS3-Q206V mutant has restored oxidation activity
NmNEPS3 [4]
  end-point GC-MS coupled assay: NmNEPS3 (N. mussinii), which produces 7S-cis-cis nepetalactol 3b

## CC1=COC(O)[C@H]2[C@@H]1CC[C@@H]2C (stereo partly drawn) [3a, 7S-cis-trans nepetalactol]
NmNEPS4
  end-point GC-MS coupled assay: NmNEPS4 can only oxidize 3a (Fig. 3A)
NmNEPS1; nepetalactol formed in situ with 7S-ISY
  end-point GC-MS coupled assay: NmNEPS1 is able to oxidize both 3c and 7S-cis-trans nepetalactol 3a
